PMC7316778 (Nature Communications, 2020)
“And” between values parts separate entries of the source, which are not always exact repeats. Identical values can stand only once. Like-named read-outs stand apart in the source and are kept apart here.

Assays:
Assay in all cases: SelectScreen kinase assay
PIP5K1B = PIP5K1B (Homo sapiens, UniProt O14986); conditions: for Inhibition at 1 µM (%): PIP5K1B, Adapta, ATP 10
Experimental: (§1) Selectivity profiling assays were performed by the Invitrogen SelectScreen™ Services. […] The concentration of ATP was selected to be equal to the KM, unless indicated otherwise.

KSR2 = target: T1, KSR2 (Homo sapiens, UniProt Q6VAB6); conditions: for Inhibition at 1 µM (%): KSR2, ZLYTE, ATP Km app
T1 sequence (Q6VAB6 1-950): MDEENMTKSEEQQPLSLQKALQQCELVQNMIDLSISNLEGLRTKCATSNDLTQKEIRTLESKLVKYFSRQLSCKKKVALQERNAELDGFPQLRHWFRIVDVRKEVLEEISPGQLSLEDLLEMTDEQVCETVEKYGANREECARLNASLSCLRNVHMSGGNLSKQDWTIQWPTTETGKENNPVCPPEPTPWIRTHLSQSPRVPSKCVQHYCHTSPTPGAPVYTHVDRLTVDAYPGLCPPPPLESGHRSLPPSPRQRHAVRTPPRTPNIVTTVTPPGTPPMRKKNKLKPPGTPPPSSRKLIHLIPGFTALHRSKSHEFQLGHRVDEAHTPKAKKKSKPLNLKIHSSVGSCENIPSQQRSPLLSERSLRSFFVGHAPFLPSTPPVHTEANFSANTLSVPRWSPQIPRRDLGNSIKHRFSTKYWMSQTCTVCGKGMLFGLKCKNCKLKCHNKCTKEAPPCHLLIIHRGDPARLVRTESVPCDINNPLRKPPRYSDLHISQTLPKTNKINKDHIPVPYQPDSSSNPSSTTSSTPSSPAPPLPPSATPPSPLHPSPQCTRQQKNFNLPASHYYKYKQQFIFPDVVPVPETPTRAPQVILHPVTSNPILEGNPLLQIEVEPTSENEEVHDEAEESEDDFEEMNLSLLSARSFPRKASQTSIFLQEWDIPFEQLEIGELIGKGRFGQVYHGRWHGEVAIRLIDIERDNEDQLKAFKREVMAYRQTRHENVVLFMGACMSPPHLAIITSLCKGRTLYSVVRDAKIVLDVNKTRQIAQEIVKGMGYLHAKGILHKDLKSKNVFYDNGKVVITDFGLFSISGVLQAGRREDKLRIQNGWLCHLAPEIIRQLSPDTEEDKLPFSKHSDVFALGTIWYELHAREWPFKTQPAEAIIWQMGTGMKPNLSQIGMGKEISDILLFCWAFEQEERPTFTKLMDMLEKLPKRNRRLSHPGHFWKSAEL
Experimental: as §1

ADCK3 = ADCK3 (Homo sapiens, UniProt Q8NI60)
Experimental: as §1

PI4K2B (PI4K2 beta) = PI4K2B (PI4K2 beta) (Homo sapiens, UniProt Q8TCG2); conditions: for Inhibition at 1 µM (%): PI4K2B (PI4K2 beta), Adapta, ATP 10
Experimental: as §1

CHUK (IKK alpha) = CHUK (IKK alpha) (Homo sapiens, UniProt O15111)
Experimental: as §1

BTK = BTK (Homo sapiens, UniProt Q06187)
Experimental: as §1

CAMK1 (CaMK1) = CAMK1 (CaMK1) (Homo sapiens, UniProt Q14012); conditions: 1 h, 1 μM WEL028, 1 h preincubation
Experimental: as §1

EPHA3 = target: T2, EPHA3 (Homo sapiens, UniProt P29320)
T2 sequence (P29320 21-983): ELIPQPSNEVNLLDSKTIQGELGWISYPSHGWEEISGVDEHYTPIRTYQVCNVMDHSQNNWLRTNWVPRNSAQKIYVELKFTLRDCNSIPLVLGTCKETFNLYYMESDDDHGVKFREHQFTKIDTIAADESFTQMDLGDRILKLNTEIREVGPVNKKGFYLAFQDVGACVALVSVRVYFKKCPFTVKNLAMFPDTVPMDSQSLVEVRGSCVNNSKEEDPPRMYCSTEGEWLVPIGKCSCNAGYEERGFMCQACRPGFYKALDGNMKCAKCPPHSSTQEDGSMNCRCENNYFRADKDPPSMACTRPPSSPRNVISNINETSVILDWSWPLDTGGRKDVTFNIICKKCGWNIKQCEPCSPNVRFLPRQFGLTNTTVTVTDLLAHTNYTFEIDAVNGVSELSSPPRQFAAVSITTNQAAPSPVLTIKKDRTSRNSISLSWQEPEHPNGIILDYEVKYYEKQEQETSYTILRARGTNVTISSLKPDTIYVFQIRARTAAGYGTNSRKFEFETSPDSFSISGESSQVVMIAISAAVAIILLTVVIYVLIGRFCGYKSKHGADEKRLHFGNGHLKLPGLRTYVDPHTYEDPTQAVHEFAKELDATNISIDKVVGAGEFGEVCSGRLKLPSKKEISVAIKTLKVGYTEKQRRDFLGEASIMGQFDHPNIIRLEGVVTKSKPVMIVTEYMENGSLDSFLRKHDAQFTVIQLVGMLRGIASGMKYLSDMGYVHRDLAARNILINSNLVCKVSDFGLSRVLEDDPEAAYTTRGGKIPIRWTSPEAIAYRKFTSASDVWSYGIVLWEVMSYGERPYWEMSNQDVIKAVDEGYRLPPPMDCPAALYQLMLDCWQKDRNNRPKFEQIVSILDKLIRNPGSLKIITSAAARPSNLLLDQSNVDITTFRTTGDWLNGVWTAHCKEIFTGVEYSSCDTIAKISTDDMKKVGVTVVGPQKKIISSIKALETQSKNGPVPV
Experimental: as §1

IRAK4 = IRAK4 (Homo sapiens, UniProt Q9NWZ3)
Experimental: as §1

MYLK2 (skMLCK) = MYLK2 (skMLCK) (Homo sapiens, UniProt Q9H1R3); conditions: for Inhibition at 1 µM (%): MYLK2 (skMLCK), ZLYTE, ATP Km app
Experimental: as §1

TXK = TXK (Homo sapiens, UniProt P42681)
Experimental: as §1

MARK2 = MARK2 (Homo sapiens, UniProt Q7KZI7)
Experimental: as §1

[1] = 1 h, 1 μM WEL028, 1 h preincubation

MARK2, sequence (Q7KZI7 whole entry): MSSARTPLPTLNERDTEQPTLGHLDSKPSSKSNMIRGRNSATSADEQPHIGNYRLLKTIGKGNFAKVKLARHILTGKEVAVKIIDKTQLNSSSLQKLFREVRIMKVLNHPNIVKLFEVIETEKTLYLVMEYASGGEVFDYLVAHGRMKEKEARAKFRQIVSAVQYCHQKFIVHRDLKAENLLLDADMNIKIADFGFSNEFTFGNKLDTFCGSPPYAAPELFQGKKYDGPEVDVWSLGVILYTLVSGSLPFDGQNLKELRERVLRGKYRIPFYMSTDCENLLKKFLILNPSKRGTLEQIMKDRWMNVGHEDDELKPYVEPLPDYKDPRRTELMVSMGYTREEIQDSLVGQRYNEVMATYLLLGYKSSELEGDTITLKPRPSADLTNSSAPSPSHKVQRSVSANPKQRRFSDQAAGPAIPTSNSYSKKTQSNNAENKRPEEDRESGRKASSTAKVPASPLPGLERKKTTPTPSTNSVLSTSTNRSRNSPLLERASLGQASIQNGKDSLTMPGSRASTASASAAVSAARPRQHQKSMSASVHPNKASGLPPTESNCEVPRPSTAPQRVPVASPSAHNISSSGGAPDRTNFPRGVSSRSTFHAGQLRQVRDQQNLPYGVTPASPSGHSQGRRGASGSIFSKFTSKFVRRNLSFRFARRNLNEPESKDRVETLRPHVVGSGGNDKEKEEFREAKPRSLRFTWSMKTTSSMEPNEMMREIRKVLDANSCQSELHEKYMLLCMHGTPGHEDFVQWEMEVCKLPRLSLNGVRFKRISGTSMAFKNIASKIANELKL
MYLK2 (skMLCK), sequence (Q9H1R3 whole entry): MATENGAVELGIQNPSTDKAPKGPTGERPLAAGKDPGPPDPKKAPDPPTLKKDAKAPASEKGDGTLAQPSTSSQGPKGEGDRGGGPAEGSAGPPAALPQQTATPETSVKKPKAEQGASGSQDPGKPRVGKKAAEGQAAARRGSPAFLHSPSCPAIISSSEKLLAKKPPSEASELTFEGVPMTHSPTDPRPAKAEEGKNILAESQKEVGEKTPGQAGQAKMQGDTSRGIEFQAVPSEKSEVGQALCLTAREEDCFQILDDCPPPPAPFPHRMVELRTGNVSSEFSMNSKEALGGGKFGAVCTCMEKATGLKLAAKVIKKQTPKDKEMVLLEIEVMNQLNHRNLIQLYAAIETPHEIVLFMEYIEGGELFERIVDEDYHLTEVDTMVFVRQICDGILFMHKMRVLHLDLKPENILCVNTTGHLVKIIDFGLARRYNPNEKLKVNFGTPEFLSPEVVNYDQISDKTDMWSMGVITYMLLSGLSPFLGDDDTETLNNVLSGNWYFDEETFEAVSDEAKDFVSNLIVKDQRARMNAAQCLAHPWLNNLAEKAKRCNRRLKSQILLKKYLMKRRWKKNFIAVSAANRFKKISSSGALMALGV
CHUK (IKK alpha), sequence (O15111 whole entry): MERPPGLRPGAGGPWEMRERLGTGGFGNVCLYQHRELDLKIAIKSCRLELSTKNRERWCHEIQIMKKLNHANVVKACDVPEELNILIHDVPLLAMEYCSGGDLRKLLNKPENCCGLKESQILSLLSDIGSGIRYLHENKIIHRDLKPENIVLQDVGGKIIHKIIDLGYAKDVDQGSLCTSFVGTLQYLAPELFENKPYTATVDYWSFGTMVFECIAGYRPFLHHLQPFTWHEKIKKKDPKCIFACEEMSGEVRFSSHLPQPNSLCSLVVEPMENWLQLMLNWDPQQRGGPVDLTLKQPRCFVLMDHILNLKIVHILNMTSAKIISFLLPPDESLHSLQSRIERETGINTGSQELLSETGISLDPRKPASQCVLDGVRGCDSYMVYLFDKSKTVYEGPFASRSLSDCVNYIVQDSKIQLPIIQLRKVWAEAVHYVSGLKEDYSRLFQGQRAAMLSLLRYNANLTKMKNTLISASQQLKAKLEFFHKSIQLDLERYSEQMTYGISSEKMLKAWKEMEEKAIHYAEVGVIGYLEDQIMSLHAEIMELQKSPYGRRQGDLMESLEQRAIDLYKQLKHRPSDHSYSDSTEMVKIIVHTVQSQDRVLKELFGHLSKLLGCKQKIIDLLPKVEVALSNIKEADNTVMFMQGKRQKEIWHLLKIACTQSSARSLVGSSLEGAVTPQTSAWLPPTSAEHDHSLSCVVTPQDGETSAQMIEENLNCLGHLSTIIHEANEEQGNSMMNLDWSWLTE
IRAK4, sequence (Q9NWZ3 whole entry): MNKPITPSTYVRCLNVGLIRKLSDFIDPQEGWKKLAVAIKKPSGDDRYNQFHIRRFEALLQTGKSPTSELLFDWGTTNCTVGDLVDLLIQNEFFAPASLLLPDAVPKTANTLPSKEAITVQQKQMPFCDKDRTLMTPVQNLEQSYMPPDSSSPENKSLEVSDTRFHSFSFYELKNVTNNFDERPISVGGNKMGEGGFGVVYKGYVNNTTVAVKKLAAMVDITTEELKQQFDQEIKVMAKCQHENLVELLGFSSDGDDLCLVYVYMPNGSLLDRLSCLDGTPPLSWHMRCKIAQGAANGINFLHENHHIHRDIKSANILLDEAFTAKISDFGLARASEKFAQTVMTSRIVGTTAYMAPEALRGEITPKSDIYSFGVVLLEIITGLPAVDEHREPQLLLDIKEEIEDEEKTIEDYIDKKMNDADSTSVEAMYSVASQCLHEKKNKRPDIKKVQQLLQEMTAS
PIP5K1B, sequence (O14986 whole entry): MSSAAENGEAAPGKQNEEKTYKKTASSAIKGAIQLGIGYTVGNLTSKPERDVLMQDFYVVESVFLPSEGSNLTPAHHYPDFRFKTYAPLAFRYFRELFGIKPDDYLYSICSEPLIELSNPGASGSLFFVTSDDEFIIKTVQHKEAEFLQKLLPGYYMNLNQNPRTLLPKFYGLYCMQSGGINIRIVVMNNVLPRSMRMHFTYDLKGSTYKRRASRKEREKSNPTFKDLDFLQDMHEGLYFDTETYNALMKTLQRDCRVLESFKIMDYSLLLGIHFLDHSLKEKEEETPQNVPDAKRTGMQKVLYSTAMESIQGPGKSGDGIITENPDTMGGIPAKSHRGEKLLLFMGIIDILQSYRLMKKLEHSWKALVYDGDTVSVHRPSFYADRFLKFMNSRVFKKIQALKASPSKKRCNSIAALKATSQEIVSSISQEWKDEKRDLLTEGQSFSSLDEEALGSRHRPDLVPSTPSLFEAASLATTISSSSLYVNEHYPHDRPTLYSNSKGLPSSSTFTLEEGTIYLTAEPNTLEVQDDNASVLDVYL
PI4K2B (PI4K2 beta), sequence (Q8TCG2 whole entry): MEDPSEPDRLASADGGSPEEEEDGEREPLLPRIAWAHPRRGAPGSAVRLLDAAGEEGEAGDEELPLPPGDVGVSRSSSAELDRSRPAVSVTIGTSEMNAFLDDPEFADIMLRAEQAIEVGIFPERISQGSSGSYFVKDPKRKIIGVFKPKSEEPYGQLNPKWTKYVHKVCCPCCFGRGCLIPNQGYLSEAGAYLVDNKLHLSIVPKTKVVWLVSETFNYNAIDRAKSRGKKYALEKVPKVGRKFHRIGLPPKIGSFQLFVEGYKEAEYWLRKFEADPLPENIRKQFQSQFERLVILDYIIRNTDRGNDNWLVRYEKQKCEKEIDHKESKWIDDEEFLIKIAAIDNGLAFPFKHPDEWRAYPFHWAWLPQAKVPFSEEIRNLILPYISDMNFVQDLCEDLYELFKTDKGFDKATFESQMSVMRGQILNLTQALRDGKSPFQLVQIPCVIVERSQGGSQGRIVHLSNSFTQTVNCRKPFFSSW
BTK, sequence (Q06187 whole entry): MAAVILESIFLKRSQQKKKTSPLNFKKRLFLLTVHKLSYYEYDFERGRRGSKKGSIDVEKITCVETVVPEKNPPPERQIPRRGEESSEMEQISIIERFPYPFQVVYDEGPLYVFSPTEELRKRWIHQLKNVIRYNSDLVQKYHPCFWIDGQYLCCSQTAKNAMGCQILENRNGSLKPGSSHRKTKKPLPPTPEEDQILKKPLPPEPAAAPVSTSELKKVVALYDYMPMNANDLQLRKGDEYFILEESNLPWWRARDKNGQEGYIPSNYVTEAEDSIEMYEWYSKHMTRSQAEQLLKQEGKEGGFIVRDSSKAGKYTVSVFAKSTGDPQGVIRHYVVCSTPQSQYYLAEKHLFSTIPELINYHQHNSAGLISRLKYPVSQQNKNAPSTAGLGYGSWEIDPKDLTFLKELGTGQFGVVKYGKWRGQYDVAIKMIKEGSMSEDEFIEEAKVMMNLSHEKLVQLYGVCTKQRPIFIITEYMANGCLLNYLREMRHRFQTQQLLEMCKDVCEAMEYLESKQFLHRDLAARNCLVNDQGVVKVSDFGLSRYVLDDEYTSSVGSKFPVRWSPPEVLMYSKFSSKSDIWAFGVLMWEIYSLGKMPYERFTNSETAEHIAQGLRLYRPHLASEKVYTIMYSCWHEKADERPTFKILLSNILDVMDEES
ADCK3, sequence (Q8NI60 163-647): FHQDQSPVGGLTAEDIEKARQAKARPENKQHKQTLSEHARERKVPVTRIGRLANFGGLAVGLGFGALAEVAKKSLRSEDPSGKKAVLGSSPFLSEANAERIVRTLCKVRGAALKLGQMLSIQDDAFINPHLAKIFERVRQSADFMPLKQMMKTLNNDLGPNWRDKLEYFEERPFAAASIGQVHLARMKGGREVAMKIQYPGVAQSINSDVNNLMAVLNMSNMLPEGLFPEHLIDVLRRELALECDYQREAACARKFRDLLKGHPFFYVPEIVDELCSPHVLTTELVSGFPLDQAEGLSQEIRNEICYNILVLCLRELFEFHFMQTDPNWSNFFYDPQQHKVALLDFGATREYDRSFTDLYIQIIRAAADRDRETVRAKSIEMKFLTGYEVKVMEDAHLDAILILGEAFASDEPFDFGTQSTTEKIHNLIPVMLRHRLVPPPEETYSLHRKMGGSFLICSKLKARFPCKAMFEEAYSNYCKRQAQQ

C#CCOc1ccc(Nc2ncc(Cl)c(Nc3ccccc3NC(=O)C=C)n2)c(OC)c1 [Compound 6]
inhibition at 1 µM (PIP5K1B; [1]): -11% | Inhibition at 1 µM (%) (PIP5K1B): -13% | Inhibition at 1 µM (%) (PIP5K1B; listed as WEL028, 1 µM): -9% | inhibition at 1 µM (KSR2; [1]): 1% | Inhibition at 1 µM (%) (KSR2): 2% | Inhibition at 1 µM (%) (KSR2; listed as WEL028, 1 µM): 0% | inhibition at 1 µM (ADCK3; 1 h): 2% | inhibition at 1 µM (ADCK3; read-out: Inhibition at 1 µM (%)): 2% | inhibition at 1 µM (PI4K2B (PI4K2 beta); [1]): 2% | Inhibition at 1 µM (%) (PI4K2B (PI4K2 beta)): 3% | Inhibition at 1 µM (%) (PI4K2B (PI4K2 beta); listed as WEL028, 1 µM): 0% | inhibition at 1 µM (CHUK (IKK alpha); [1]): 7% | Inhibition at 1 µM (%) (CHUK (IKK alpha); CHUK (IKK alpha), 1 µM, Adapta, ATP Km app, listed as WEL028, 1 µM): 12% and 3% | Inhibition (%) (BTK; 1 μM WEL028, 1 h preincubation): 11% | Inhibition at 1 µM (%) (BTK; BTK, 1 µM, ZLYTE, ATP Km app): 17% | inhibition at 1 µM (CAMK1 (CaMK1)): 6% | inhibition at 1 µM (EPHA3; [1]): 9% | Inhibition at 1 µM (%) (EPHA3; EPHA3, 1 µM, LanthaScreen Binding, listed as WEL028, 1 µM): 8% | inhibition at 1 µM (EPHA3; read-out: Inhibition at 1 µM (%), EPHA3, 1 µM, LanthaScreen Binding): 10% | Inhibition (%) (IRAK4; 1 μM WEL028, 1 h preincubation): 0% | Inhibition at 1 µM (%) (IRAK4; IRAK4, 1 µM, ZLYTE, ATP Km app, listed as WEL028, 1 µM): -3% and 3% | inhibition at 1 µM (MYLK2 (skMLCK); [1]): -3% | Inhibition at 1 µM (%) (MYLK2 (skMLCK)): 2% | Inhibition at 1 µM (%) (MYLK2 (skMLCK); listed as WEL028, 1 µM): -8% | inhibition at 1 µM (TXK; [1]): 7% | inhibition at 1 µM (TXK; read-out: Inhibition at 1 µM (%), 1 µM, ZLYTE, ATP Km app): 8% | inhibition at 1 µM (MARK2; [1]): 8% | Inhibition at 1 µM (%) (MARK2; MARK2, 1 µM, ZLYTE, ATP Km app, listed as WEL028, 1 µM): 9% | inhibition at 1 µM (MARK2; read-out: Inhibition at 1 µM (%), MARK2, 1 µM, ZLYTE, ATP Km app): 6%
